In US20220233661A1, “METHOD OF DETERMINING ELIGIBILITY OF CANCER PATIENT FOR PEPTIDE VACCINE THERAPY” (priority 2019, published 2022):

Legend:
cancer patients = assay: Test Example 4: correlation between vaccination with individual peptides (or peptide sets) and OS, Cox proportional hazards regression; assay type: in vivo, human; conditions: for HR: Cox proportional hazards regression, OS; for Correlation between immune responses and OS: Negative (mOS) / Correlation between immune responses and OS: Positive (mOS): Table 20, <64% neutrophil and ≥26% lymphocyte; for Correlation between immune responses and OS: Negative (mOS): vaccinated patients with negative IgG response; for Correlation between immune responses and OS: Positive (mOS): vaccinated patients with positive IgG response
Procedure: The Student's t-test and the chi-square test were used to compare quantitative and categorical variables, respectively. OS was calculated as the time in months from the date of clinical trial enrollment to death or to the date of last contact. Time-to-event endpoints were analyzed using the Kaplan-Meier method, and between-group comparison for OS was conducted using the log-rank test. Clinical efficacy of the individual peptides for OS was evaluated by univariate and multivariate analyses with the Cox proportional hazards regression model, and HR and 95% CI were calculated. All reported p-values were two-sided, and p-values less than 0.05 were considered significant. JMP version 12 or SAS version 9.4 software (SAS Institute Inc., Cary, N.C.) was used to perform all analyses.
Correlation levels of the 31 peptides for OS were evaluated by the Cox proportional hazards regression model.
Similarly, in the 2,085 advanced cancer patients (stage IV+recurrence) and the 503 non-advanced cancer patients (I-III stages) correlation levels of the 31 peptides for OS were evaluated by the Cox proportional hazards regression model. […]

[1] = test system: anti-peptide IgG in plasma; assay: Test Example 4: peptide-specific IgG titer pre and post vaccination, bead-based multiplexed Luminex assay; assay type: in vivo, human; conditions: for Pre-vaccination IgG Negative (number of patients) / Pre-vaccination IgG Positive (number of patients): cut off 10 FIU; for Post vaccination IgG: number of (positive) patients among vaccinated: positive IgG response; for Pre-vaccination IgG Negative patients: number of 2,588 patients below 10 FIU; for Pre-vaccination IgG Positive patients: number of 2,588 patients with ≥10 FIU; for Post vaccination IgG: (positive) patients: number of vaccinated patients with positive IgG response; for Correlation between immune responses and OS: Negative (mOS): patients with negative post-vaccination IgG response to the peptide; for Correlation between immune responses and OS: Positive (mOS): patients with positive post-vaccination IgG response to the peptide
Procedure: As described previously, IgG titer specific to the antigen peptides in plasma was measured by bead-based multiplexed Luminex assay (Luminex, Austin, Tex.) before and after vaccination, i.e., at the end of each cycle or at the end of the clinical trial (Non-Patent Literature 4). In brief, 30 mL of peripheral blood was obtained before and after vaccination. Plasma was incubated with 100 μL of peptide-coupled color-coded beads for 2 hours at 25° C. on a plate shaker. After the incubation, the resultant mixture was washed with a vacuum manifold apparatus and incubated with 100 μL of biotinylated goat anti-human IgG (gamma chain-specific; Vector Laboratories, Burlingame, Calif.) for 1 hour at 25° C. on a plate shaker. The plate was then washed, followed by addition of 100 μL of streptavidin-PE (Life Technologies) to each well, and incubation for 30 minutes at 25° C. on a plate shaker. The resultant beads were washed 4 times, followed by addition of 100 μL of Tween-PBS to each well, and detection of fluorescence intensity units (FIU) on the beads using the Luminex system. The cutoff values of anti-peptide IgG were set to 10 FIU in 100-fold diluted samples.
Pre-vaccination peptide-specific IgG titers to 31 peptides were measured using a Luminex system. As a detectable IgG level, 10 FIU was employed as the cut off level, as reported previously (Noguchi M, et al., Cancer Immunol Immunother. 2013 May; 62(5): 919-29; Sasada T, et al., Current Medicinal Chemistry. 21: 2332-2345, 2014; Kibe S, et al., Cancer Immunology Research 2014; 2(12): 1154-62).
Post-vaccination lgG titers were measured at the ends of the first cycle and the second cycle.

[2] = 2,085 advanced cancer patients (stage IV+recurrence)
[3] = Table 18, all 2,588 cases, vaccinated vs non-vaccinated
[4] = Table 18, all 2,588 cases, median OS of patients under PPV containing the peptide
[5] = Table 18, all 2,588 cases, median OS of patients under PPV not containing the peptide
[6] = Table 19, 2,085 advanced cancer patients (stage IV+recurrence)
[7] = Table 19, 2,085 advanced cancer patients (stage IV+recurrence), PPV containing the peptide
[8] = Table 19, 2,085 advanced cancer patients (stage IV+recurrence), PPV not containing the peptide
[9] = Table 21, patients showing both <64% neutrophil and ≥26% lymphocyte
[10] = Table 21, patients showing both <64% neutrophil and ≥26% lymphocyte, PPV containing the peptide
[11] = Table 21, patients showing both <64% neutrophil and ≥26% lymphocyte, PPV not containing the peptide
[12] = Table 20, patients showing both <64% neutrophil and ≥26% lymphocyte
[13] = patients showing detectable levels
[14] = patients showing positive responses

Sequence | HR (cancer patients; [3]) | Vaccinate cases (mOS) (cancer patients; [4]) | Non-vaccinate cases (mOS) (cancer patients; [5]) | HR (cancer patients; [6]) | Vaccinate cases (mOS) (cancer patients; [7]) | Non-vaccinate cases (mOS) (cancer patients; [8]) | Correlation between immune responses and OS: Negative (mOS) (cancer patients) [months] | Correlation between immune responses and OS: Positive (mOS) (cancer patients) [months] | HR (cancer patients; [9]) | Vaccinate cases (mOS) (cancer patients; [10]) | Non-vaccinate cases (mOS) (cancer patients; [11]) | Post vaccination IgG Median (FIU) [1, 12] | Pre-vaccination IgG Median (FIU) [1, 12] [FIU] | Pre-vaccination IgG Negative (number of patients) [1, 12] | Pre-vaccination IgG Positive (number of patients) [1, 12] | Post vaccination IgG: number of (positive) patients among vaccinated [1, 12] | Pre-vaccination IgG Negative patients [1] | Pre-vaccination IgG Positive patients [1] | Post vaccination IgG: (positive) patients [1] | Pre-vaccination IgG Median (FIU) [1, 13] [FIU] | also measured
ALVEFEDVL (listed as Homo sapiens) [HNRPL-140] | 0.8 | 200(12.9) M | 850(11.1) M | 0.8 | 162(12.1) M | 700(10.0) M | 10.4 | 26.2 | 0.8 | 103(19.0) M | 331(15.6) M | 7,150 FIU | 37 | 505 | 561 | 103(68) | 1,293 | 1,295 | 200(111) | 39 | median OS of non-vaccinated cases (cancer patients; [2]): 10 months; median OS of vaccinated cases (cancer patients; [2]): 12.1 months; median OS of vaccinated cases (cancer patients; all 2,588 cases, PPV containing the peptide): 12.9 months; median OS of non-vaccinated cases (cancer patients; all 2,588 cases, PPV not containing the peptide): 11.1 months; Post vaccination IgG Median (FIU) [1, 14]: 8,576 FIU; Correlation between immune responses and OS: Negative (mOS) [1]: 9.8 months; Correlation between immune responses and OS: Positive (mOS) [1]: 23.9 months
ASLDSDPWV (listed as Homo sapiens) [WHSC2-103] | 1.0 | 729(11.5) M | 1,465(11.6) M | 1.0 | 581(10.2) M | 1193(10.3) M | 14.4 | 27.1 | 1.0 | 289(17.6) M | 617(18.0) M | 916 FIU | 40 | 381 | 685 | 289(105) | 915 | 1,673 | 729(222) | 43 | Post vaccination IgG Median (FIU) [1, 14]: 827 FIU; Correlation between immune responses and OS: Negative (mOS) [1]: 12.1 months; Correlation between immune responses and OS: Positive (mOS) [1]: 19.6 months
AYDFLYNYL (listed as Homo sapiens) [SART2-161] | 1.0 | 195(12.3) M | 13,552(11.9) M | 0.9 | 156(10.7) M | 1090(10.4) M | 14.4 | 26.7 | 1.1 | 70(17.4) M | 555(18.4) M | 775 FIU | 27 | 699 | 367 | 70(26) | 1,641 | 947 | 195(61) | 29 | Post vaccination IgG Median (FIU) [1, 14]: 312 FIU; Correlation between immune responses and OS: Negative (mOS) [1]: 12.6 months; Correlation between immune responses and OS: Positive (mOS) [1]: 20.6 months
DLLSHAFFA (listed as Homo sapiens) [MAP-432] | 1.0 | 375(11.1) M | 1,087(11.9) M | 1.1 | 296(9.7) M | 892(10.8) M | 15.5 | 29.4 | 1.1 | 133(16.1) M | 460(18.5) M | 947 FIU | 52 | 549 | 517 | 133(45) | 1,280 | 1,308 | 375(97) | 51 | Post vaccination IgG Median (FIU) [1, 14]: 757 FIU; Correlation between immune responses and OS: Negative (mOS) [1]: 12.0 months; Correlation between immune responses and OS: Positive (mOS) [1]: 23.8 months
DVWSFGILL (listed as Homo sapiens) [Lck-422] | 1.2 | 92(12.0) M | 1,849(11.4) M | 1.1 | 83(11.7) M | 1493(10.2) M | 15.6 | 18.8 | 1.1 | 33(15.6) M | 775(17.5) M | 446 FIU | 33 | 945 | 121 | 33(10) | 2,272 | 316 | 92(20) | 33 | positive rate of patients showing ≥10 FIU, pre-vaccination peptide-specific IgG ([1]; 2,588 patients, pre-vaccination): 12%; Post vaccination IgG Median (FIU) [1, 14]: 436 FIU; positive immune responses post-vaccination (positive of vaccinated cases) ([1]; patients who completed at least the first cycle): 20 of 92; Correlation between immune responses and OS: Negative (mOS) [1]: 11.7 months; Correlation between immune responses and OS: Positive (mOS) [1]: 18.5 months
